{"source": "patent US20260373103A1", "about": "“COMPOSITIONS AND METHODS FOR PREVENTING CARDIOMYOPATHY” (OHIO STATE INNOVATION FOUNDATION, priority 2022, published 2026)", "key": {"TOM20": {"tested_on": "TOM20", "assay": "TOM20 ubiquitination and TOM20 protein level after A/O, western blot", "format": "cell-based", "method": "HeLa cells and mouse embryonic fibroblasts (MEFs) were grown in Dulbecco's minimum essential medium (DMEM) with 10% fetal bovine serum (FBS) supplemented with penicillin-streptomycin. HeLa Parkin, PINK1 KO cells, WT and MFN2 KO cells were previously described. Cells stably expressing USP30 were generated using lentiviral vectors of pLVX-Puro-Myc-USP30. The USP30 plasmid was obtained from Addgene. The plasmid was transferred into a lentiviral vector and viral particles were prepared by transiently transfecting HEK293T using standard methods. For the drug treatment experiments, cells were incubated in medium containing a mixture of 5 μM oligomycin and 5 μM antimycin A (A/O; see figures for treatment times). In 18 h treatment, A/O were used in combination with 10 μM quinolyl-valyl-O-methylaspartyl-[−2,6-difluorophenoxy]-methyl ketone (QVD), a broad-spectrum caspase inhibitor. ST51000539 (ST-539) was purchased from Tim Tec, Inc. Other chemicals were from Sigma-Aldrich (St. Louis, MO, USA). For FACS analysis, cells stably expressing mt-Keima were incubated in medium containing a mixture of […] antimycin A for 1.5 h. Prior to A/O treatment, cultures were treated with DMSO or ST-539 at 3 μg/ml. Cells were trypsinized, washed once with PBS buffer and then resuspended into 500 μl of PBS prior to analysis using a BD Fortessa flow cytometer as previously described.\n(§1) Cells were lysed in RIPA buffer (50 mM Tris-HCl, at pH 8.0; 150 mM NaCl; 1% (vol/vol) Nonidet P-40; 0.5% sodium deoxycholate, 0.1% SDS and protease inhibitor cocktail (Roche)) on ice. Primary antibodies were used at the following concentrations: USP30 (Santa Cruz, sc-515235, 1:200); TOM20 (Cell Signaling Technology, 42406S, 1:1000); TOM40 (Proteintech, 18409-1-AP, 1:1000); NDP52 (Cell Signaling Technology, 60732S, 1:1000); TIM23 (Proteintech, 11123-1-AP, 1:500); LC3A/B (Cell Signaling Technology, 4108S, 1:1000); GAPDH (Cell Signaling Technology, 5175S, 1:1000); PINK1 (Cell Signaling Technology, 6946S, 1:1000); ACTIN (Cell Signaling Technology, 3700S, 1:1000). The membranes were incubated with anti-rabbit (LI-COR, 926-32211, 1:15000) or anti-mouse (LI-COR, 926-68072, 1:15000) IgG secondary antibodies for 1 h at room temperature. Images were captured using the Odyssey system (LI-Cor). One representative blot is shown of three independent experiments.\nThe enzymatic activity of Parkin is to function as an E3 ubiquitin ligase. […] To investigate TOM20 ubiquitination during mitophagy, we treated HeLa cells stably expressing YFP-Parkin (Hela-Parkin) for up to 18 h with both the mitochondrial complex III inhibitor antimycin A and the ATP synthase inhibitor oligomycin (antimycin A/oligomycin/[A/O]; FIG. 1A). […] A/O treatment also results in a decline in the abundance of the OMM protein TOM40 and the inner mitochondrial protein TIM23 (FIG. 1A). […] In this context, increased expression of USP30 blocked the accumulation of ubiquitinated TOM20 and prevented the destruction of this outer mitochondrial protein, as well as TOM40 and TIM23, after A/O treatment (FIG. 1A). We then employed this cellular assay to monitor TOM20 turnover, and analyzed compounds known to be associated with the ubiquitination process for inhibitors of USP30. […] We defined the effects of this chemical using biochemical assays. […] Initially to assess mitophagy in cells, we monitored the degradation of the inner membrane protein, the translocase of the inner membrane 23 (TIM23), by immunoblotting (FIG. 5A). […] USP30's overexpression prevented a reduction in TIM23 and TOM40 levels.\nGenetic suppression of USP30 in Parkin-overexpressing cells promotes the clearance of mitochondria in response to mitochondrial depolarizing agents. […]"}, "TOM40": {"tested_on": "TOM40", "assay": "TOM40 protein level/degradation after A/O, immunoblotting", "format": "cell-based", "details": "ST-539; HeLa-Parkin/USP30, A/O 18 h", "method": "HeLa cells and mouse embryonic fibroblasts (MEFs) were grown in Dulbecco's minimum essential medium (DMEM) with 10% fetal bovine serum (FBS) supplemented with penicillin-streptomycin. HeLa Parkin, PINK1 KO cells, WT and MFN2 KO cells were previously described. Cells stably expressing USP30 were generated using lentiviral vectors of pLVX-Puro-Myc-USP30. The USP30 plasmid was obtained from Addgene. The plasmid was transferred into a lentiviral vector and viral particles were prepared by transiently transfecting HEK293T using standard methods. For the drug treatment experiments, cells were incubated in medium containing a mixture of 5 μM oligomycin and 5 μM antimycin A (A/O; see figures for treatment times). In 18 h treatment, A/O were used in combination with 10 μM quinolyl-valyl-O-methylaspartyl-[−2,6-difluorophenoxy]-methyl ketone (QVD), a broad-spectrum caspase inhibitor. […]\nThe enzymatic activity of Parkin is to function as an E3 ubiquitin ligase. […] We then employed this cellular assay to monitor TOM20 turnover, and analyzed compounds known to be associated with the ubiquitination process for inhibitors of USP30. […] Initially to assess mitophagy in cells, we monitored the degradation of the inner membrane protein, the translocase of the inner membrane 23 (TIM23), by immunoblotting (FIG. 5A). […]"}, "LC3-II/LC3-I": {"tested_on": "LC3-II/LC3-I", "assay": "LC3 I/II immunoblotting of heart tissue", "format": "in vivo, mice", "details": "25 mg/kg/day i.p. for 5 days", "method": "as §1\nThe mt-Keima mouse. […] The mice were lightly anesthetized with isoflurane and the ejection fraction, fractional shortening, and ventricular chamber dimensions were determined using 2-D-guided M mode images. Ejection fraction, fractional shortening, ventricular chamber dimensions, and left ventricular mass were calculated automatically using the VevoLAB program. […]"}, "[1]": {"details": "ST-539 10 μg/ml, with A/O, presence of USP30"}}, "data": [{"smiles": "CC(C)(C)NS(=O)(=O)c1cccc2c(NC(=O)C(Cc3ccccc3)NC(=O)c3ccccc3)cccc12", "note": "(stereo not drawn) [ST-539]", "values": [{"measurement": "TOM20 ubiquitination and decline in TOM20 level on addition of ST-539", "setting": "TOM20; A/O plus ST-539 1 or 3 μg/ml, cells expressing both ectopic Parkin and endogenous PINK1", "value": "further potentiated"}, {"measurement": "correlation of TOM20 ubiquitination with ST-539 dosage", "setting": "TOM20; A/O treatment", "value": "A close correlation exists"}, {"measurement": "reduction in TOM20 level relative to vehicle treated cells", "setting": "TOM20; Parkin positive cells, A/O 18 h, ST-539 3 μg/ml, not in WT HeLa or PINK1 KO cells", "value": "more significant reduction"}, {"measurement": "TOM20 ubiquitination", "setting": "TOM20; [1]", "value": "caused a ubiquitinated TOM20"}, {"measurement": "loss of TOM20 protein level", "setting": "TOM20; [1]", "value": "~ 90%"}, {"measurement": "TOM20 ubiquitination independent of functional PINK1/Parkin pathway", "setting": "TOM20; long term treatment (18 h), ST-539 3 μg/ml", "value": "did not promote TOM20 ubiquitination"}, {"measurement": "TOM40 degradation", "setting": "TOM40", "value": "restored TIM23 and TOM40 degradation"}, {"measurement": "LC3-II/LC3-I ratio in heart", "setting": "LC3-II/LC3-I", "value": "increase in LC3-II/LC3-I ratio"}, {"measurement": "LC3-II level in heart", "setting": "LC3-II/LC3-I; *p<0.05", "value": "increased levels of LC3-II"}]}]}
